Like-named read-outs stand apart in the source and are kept apart here. Values belong to the compound of their own block, whether it stands above or below them.
Tests used:
[1] = dog
[2] = rat
[3] = Stability in liver microsomes, dog
[4] = Stability in liver microsomes, human; settings: for AUC: human
[5] = Stability in cryopreserved hepatocytes, rat; settings: for AUC: rat
[6] = Stability in liver microsomes, rat
[7] = Stability in human subcutaneous skin homogenate; settings: for AUC: human
[8] = Stability in cryopreserved hepatocytes, dog; settings: for AUC: dog
[9] = Stability in cryopreserved hepatocytes, human; settings: for AUC: human

AUC [1]: 2.81 µmol·min/L
AUC [2]: 2.92 µmol·min/L
Trep Concentration 0 min [3]: 0.0159 µM
Trep Concentration 10 min [3]: 0.0246 µM
Trep Concentration 20 min [3]: 0.0405 µM
Trep Concentration 30 min [3]: 0.0449 µM
Trep Concentration 60 min [3]: 0.0788 µM
Trep Concentration 0 min [4]: 0.0227 µM
Trep Concentration 10 min [4]: 0.0216 µM
Trep Concentration 20 min [4]: 0.0492 µM
Trep Concentration 30 min [4]: 0.0352 µM
Trep Concentration 60 min [4]: 0.0539 µM
AUC [4]: 2.33 µmol·min/L
Trep Concentration (μM) 0 min [5]: 0 µM
Trep Concentration (μM) 15 min [5]: 0.0876 µM
Trep Concentration (μM) 30 min [5]: 0.129 µM
Trep Concentration (μM) 60 min [5]: 0.169 µM
Trep Concentration (μM) 120 min [5]: 0.239 µM
AUC [5]: 18.99 µmol·min/L
Trep Concentration 0 min [6]: 0.0254 µM
Trep Concentration 10 min [6]: 0.0305 µM
Trep Concentration 20 min [6]: 0.0389 µM
Trep Concentration 30 min [6]: 0.0458 µM
Trep Concentration 60 min [6]: 0.079 µM
Trep Concentration 0 min [7]: 0 µM
Trep Concentration 30 min [7]: 0.857 µM
Trep Concentration 60 min [7]: 0.82 µM
Trep Concentration 120 min [7]: 0.929 µM
AUC [7]: 90.48 µmol·min/L
Trep Concentration (μM) 0 min [8]: 0 µM
Trep Concentration (μM) 15 min [8]: 0.0601 µM
Trep Concentration (μM) 30 min [8]: 0.0885 µM
Trep Concentration (μM) 60 min [8]: 0.127 µM
Trep Concentration (μM) 120 min [8]: 0.139 µM
AUC [8]: 12.78 µmol·min/L
Trep Concentration (μM) 0 min [9]: 0 µM
Trep Concentration (μM) 15 min [9]: 0.0481 µM
Trep Concentration (μM) 30 min [9]: 0.0749 µM
Trep Concentration (μM) 60 min [9]: 0.123 µM
Trep Concentration (μM) 120 min [9]: 0.194 µM
AUC [9]: 13.76 µmol·min/L
SMILES: CCCCCC(CCC1C(O)CC2Cc3c(cccc3OCC(=O)O)CC21)OC(=O)C(N)CCCCN (stereo not drawn) [XXXV]

AUC [1]: 1.62 µmol·min/L
AUC [2]: 2.90 µmol·min/L
Trep Concentration 0 min [3]: 0 µM
Trep Concentration 10 min [3]: 0.0118 µM
Trep Concentration 20 min [3]: 0.0187 µM
Trep Concentration 30 min [3]: 0.0285 µM
Trep Concentration 60 min [3]: 0.0499 µM
Trep Concentration 0 min [4]: 0 µM
Trep Concentration 10 min [4]: 0.0448 µM
Trep Concentration 20 min [4]: 0.0686 µM
Trep Concentration 30 min [4]: 0.0816 µM
Trep Concentration 60 min [4]: 0.124 µM
AUC [4]: 4.63 µmol·min/L
Trep Concentration (μM) 0 min [5]: 0 µM
Trep Concentration (μM) 15 min [5]: 0.0168 µM
Trep Concentration (μM) 30 min [5]: 0.0209 µM
Trep Concentration (μM) 60 min [5]: 0.0231 µM
Trep Concentration (μM) 120 min [5]: 0.0216 µM
AUC [5]: 2.41 µmol·min/L
Trep Concentration 0 min [6]: 0 µM
Trep Concentration 10 min [6]: 0.0292 µM
Trep Concentration 20 min [6]: 0.0421 µM
Trep Concentration 30 min [6]: 0.0553 µM
Trep Concentration 60 min [6]: 0.0719 µM
Trep Concentration 0 min [7]: 0 µM
Trep Concentration (μM) 0 min [8]: 0 µM
Trep Concentration (μM) 15 min [8]: 0 µM
Trep Concentration (μM) 30 min [8]: 0 µM
Trep Concentration (μM) 60 min [8]: 0.00355 µM
Trep Concentration (μM) 120 min [8]: 0.00371 µM
AUC [8]: 0.27 µmol·min/L
Trep Concentration (μM) 0 min [9]: 0 µM
Trep Concentration (μM) 15 min [9]: 0.0152 µM
Trep Concentration (μM) 30 min [9]: 0.0199 µM
Trep Concentration (μM) 60 min [9]: 0.0215 µM
Trep Concentration (μM) 120 min [9]: 0.0212 µM
AUC [9]: 2.28 µmol·min/L
SMILES: CCCCCC(CCC1C(O)CC2Cc3c(cccc3OCC(=O)O)CC21)OCC (stereo not drawn) [XLVII]

AUC [1]: 1.72 µmol·min/L
AUC [2]: 0.00 µmol·min/L
Trep Concentration 0 min [3]: 0.0163 µM
Trep Concentration 20 min [3]: 0.0295 µM
Trep Concentration 30 min [3]: 0.0273 µM
Trep Concentration 60 min [3]: 0.0415 µM
Trep Concentration 0 min [4]: 0 µM
Trep Concentration 10 min [4]: 0.0147 µM
Trep Concentration 20 min [4]: 0 µM
Trep Concentration 30 min [4]: 0.0153 µM
Trep Concentration 60 min [4]: 0.00987 µM
AUC [4]: 0.60 µmol·min/L
Trep Concentration (μM) 0 min [5]: 0 µM
Trep Concentration (μM) 15 min [5]: 0.0136 µM
Trep Concentration (μM) 30 min [5]: 0.0199 µM
Trep Concentration (μM) 60 min [5]: 0.106 µM
Trep Concentration (μM) 120 min [5]: 0.0527 µM
AUC [5]: 7.00 µmol·min/L
Trep Concentration 0 min [6]: 0 µM
Trep Concentration 10 min [6]: 0 µM
Trep Concentration 20 min [6]: 0 µM
Trep Concentration 30 min [6]: 0 µM
Trep Concentration 60 min [6]: 0 µM
Trep Concentration 0 min [7]: 0 µM
Trep Concentration 30 min [7]: 0 µM
Trep Concentration 60 min [7]: 0.0137 µM
Trep Concentration 120 min [7]: 0.0304 µM
AUC [7]: 1.53 µmol·min/L
Trep Concentration (μM) 0 min [8]: 0 µM
Trep Concentration (μM) 15 min [8]: 0.0424 µM
Trep Concentration (μM) 30 min [8]: 0.0879 µM
Trep Concentration (μM) 60 min [8]: 0.147 µM
Trep Concentration (μM) 120 min [8]: 0.248 µM
AUC [8]: 16.67 µmol·min/L
Trep Concentration (μM) 0 min [9]: 0 µM
Trep Concentration (μM) 15 min [9]: 0.0481 µM
Trep Concentration (μM) 30 min [9]: 0.041 µM
Trep Concentration (μM) 60 min [9]: 0.0715 µM
Trep Concentration (μM) 120 min [9]: 0.115 µM
AUC [9]: 8.31 µmol·min/L
SMILES: CCCCCC(CCC1C(O)CC2Cc3c(cccc3OCC(=O)O)CC21)OC(=O)CCN (stereo not drawn) [XXXVII]

AUC [1]: 53.05 µmol·min/L
AUC [2]: 11.30 µmol·min/L
Trep Concentration 0 min [3]: 0.913 µM
Trep Concentration 10 min [3]: 0.884 µM
Trep Concentration 20 min [3]: 0.828 µM
Trep Concentration 30 min [3]: 0.894 µM
Trep Concentration 60 min [3]: 0.899 µM
Trep Concentration 0 min [4]: 0.624 µM
Trep Concentration 10 min [4]: 0.632 µM
Trep Concentration 20 min [4]: 0.549 µM
Trep Concentration 30 min [4]: 0.52 µM
Trep Concentration 60 min [4]: 0.307 µM
AUC [4]: 29.94 µmol·min/L
Trep Concentration (μM) 0 min [5]: 0.0352 µM
Trep Concentration (μM) 15 min [5]: 0.186 µM
Trep Concentration (μM) 30 min [5]: 0.307 µM
Trep Concentration (μM) 60 min [5]: 0.393 µM
Trep Concentration (μM) 120 min [5]: 0.514 µM
AUC [5]: 43.07 µmol·min/L
Trep Concentration 0 min [6]: 0.0772 µM
Trep Concentration 10 min [6]: 0.114 µM
Trep Concentration 20 min [6]: 0.157 µM
Trep Concentration 30 min [6]: 0.197 µM
Trep Concentration 60 min [6]: 0.284 µM
Trep Concentration 0 min [7]: 0 µM
Trep Concentration 30 min [7]: 0.0277 µM
Trep Concentration 60 min [7]: 0.0597 µM
Trep Concentration 120 min [7]: 0.106 µM
AUC [7]: 6.70 µmol·min/L
Trep Concentration (μM) 0 min [8]: 0.0501 µM
Trep Concentration (μM) 15 min [8]: 0.587 µM
Trep Concentration (μM) 30 min [8]: 0.545 µM
Trep Concentration (μM) 60 min [8]: 0.475 µM
Trep Concentration (μM) 120 min [8]: 0.404 µM
AUC [8]: 54.94 µmol·min/L
Trep Concentration (μM) 0 min [9]: 0.0377 µM
Trep Concentration (μM) 15 min [9]: 0.406 µM
Trep Concentration (μM) 30 min [9]: 0.534 µM
Trep Concentration (μM) 60 min [9]: 0.553 µM
Trep Concentration (μM) 120 min [9]: 0.506 µM
AUC [9]: 58.45 µmol·min/L
SMILES: CCCCCC(CCC1C(O)CC2Cc3c(cccc3OCC(=O)O)CC21)OC(=O)CO (stereo not drawn) [XLIV]
